Measurements published in article PMC7000685, “Loss of GFAT-1 feedback regulation activates the hexosamine pathway that modulates protein homeostasis” (Nature Communications, 2020).
Each block holds one molecule with its values, some of them ahead of it.

Experiments:
human GFAT-1 [1] = biological target: T1, human GFAT-1 (Homo sapiens, UniProt Q06210); test: X-ray crystal structure (co-crystallization); format: binding
T1 construct: gene GFPT1; full length isoform 2, internal His6-tag inserted between Gly299 and Asp300 (kept), initial Met removed, Sf21 baculovirus (MultiBac), Ni-NTA and SEC; phosphorylated S243 found; dimer in crystal
T1 sequence (Q06210 2-681 isoform Q06210-2): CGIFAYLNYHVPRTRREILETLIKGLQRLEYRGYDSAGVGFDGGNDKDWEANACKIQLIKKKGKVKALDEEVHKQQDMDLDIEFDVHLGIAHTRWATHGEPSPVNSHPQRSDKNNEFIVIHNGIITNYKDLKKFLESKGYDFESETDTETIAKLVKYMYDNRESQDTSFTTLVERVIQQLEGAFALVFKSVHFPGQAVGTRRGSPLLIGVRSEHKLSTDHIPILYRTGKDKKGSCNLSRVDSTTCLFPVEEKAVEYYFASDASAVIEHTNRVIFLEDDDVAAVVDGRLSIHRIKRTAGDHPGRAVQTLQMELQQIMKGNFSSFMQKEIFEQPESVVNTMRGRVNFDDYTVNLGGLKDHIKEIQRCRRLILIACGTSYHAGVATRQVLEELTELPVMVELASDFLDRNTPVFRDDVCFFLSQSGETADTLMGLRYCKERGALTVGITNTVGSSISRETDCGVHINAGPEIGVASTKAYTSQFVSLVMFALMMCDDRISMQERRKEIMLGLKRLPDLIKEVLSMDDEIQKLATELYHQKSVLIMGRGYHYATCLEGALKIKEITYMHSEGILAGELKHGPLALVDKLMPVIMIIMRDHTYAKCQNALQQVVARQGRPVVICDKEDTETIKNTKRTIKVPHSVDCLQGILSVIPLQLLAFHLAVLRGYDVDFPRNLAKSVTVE

human GFAT-1 [2] = biological target: T1, human GFAT-1; test: X-ray crystal structure (crystallized with Frc6P); format: binding; settings: isomerase site; linear Glc6P modelled, Frc6P not excluded at this resolution
human GFAT-1 [3] = biological target: T1, human GFAT-1; test: X-ray crystal structure (soaking); format: binding; settings: 5 mM soak, 2 h; UDP-GlcNAc site of isomerase domain; inhibition curve in the GDH-coupled assay only in Figure 4g
human GFAT-1 [4] = biological target: T1, human GFAT-1; test: GDH-coupled glutaminase (amidohydrolysis) assay, […] nm; format: biochemical; settings: 10 mM L-Gln, 6 mM Frc6P, 1 mM APAD, 1 mM EDTA, 50 mM KCl, 100 mM potassium phosphate pH 7.5, 37 °C; feedback inhibitor bound at isomerase domain (allosteric)

SMILES: N[C@H]1C(O)O[C@H](COP(=O)(O)O)[C@@H](O)[C@@H]1O (stereo partly drawn) [D-GlcN6P]
X-ray crystal structure (co-crystallization) (human GFAT-1 [1]; 1 mM GlcN6P, with L-Glu, linear sugar in isomerase site): The GlcN6P-bound structure formed the same asymmetric dimer as the Glc6P-bound structure

SMILES: O=P(O)(O)OC[C@H]1OC(O)[C@H](O)[C@@H](O)[C@@H]1O (some centres unmarked) [Glc6P]
X-ray crystal structure (crystallized with Frc6P) (human GFAT-1 [2]): we decided to model the product Glc6P in our crystal structures

SMILES: N[C@@H](CCC(=O)O)C(=O)O [L-Glu]
X-ray crystal structure (co-crystallization) (human GFAT-1 [1]; 50 mM L-Glu, glutaminase site of monomer A only): The product L-Glu is bound to the glutaminase active site in one monomer (monomer A)

SMILES: CC(=O)N[C@H]1[C@@H](OP(=O)(O)OP(=O)(O)OC[C@H]2O[C@@H](n3ccc(=O)[nH]c3=O)[C@H](O)[C@@H]2O)O[C@H](CO)[C@H](O)[C@@H]1O [UDP-GalNAc]
X-ray crystal structure (soaking) (human GFAT-1 [3]): UDP-GalNAc was detected in the UDP-GlcNAc binding site after crystal soaking

IC50 (human GFAT-1 [4]): 43.3 (−2.3/+2.5) µM
SMILES: CC(=O)N[C@H]1[C@@H](OP(=O)(O)OP(=O)(O)OC[C@H]2O[C@@H](n3ccc(=O)[nH]c3=O)[C@H](O)[C@@H]2O)O[C@H](CO)[C@@H](O)[C@@H]1O [UDP-GlcNAc]
